Experimental data published in patent publication US20050038015A1, “Partial dopamine-D 2 receptor agonist plus serotonin and/oder noradrenaline inhibitor activity” (priority 2002, published 2005).
pEC50, pIC50: −log10 of the molar value. Read-outs that look alike come from different tables or passages of the source. Each block holds one compound with its values, some of them ahead of it.

Key:
[1] = tested on: noradrenaline levels in the prefrontal cortex; assay: In vivo microdialysis, dialysate noradrenaline; details: awake freely moving rat, p.o. or i.p. (italic)
Procedure: (§1) Microdialysis allows an insight into changes in neurotransmitters and their metabolites in the brain extracellular space in discrete brain regions in awake freely moving animals. […] The in vivo effects of the (mixtures of) compounds of the invention on dopamine, serotonin and noradrenalin levels were determined by microdialysis according to the protocol given below:
(§2) Dopamine and Serotonin Measurements by In Vivo Microdialysis
(§3) Surgery. […] Antibacterial agents and analgesics were administered prior to (Baytril (150 μl/rat i.m.)) and after (Temgesic (0.005-0.01 mg/kg i.m. non-diluted/rat)) surgery. […] In other animals, the skull is exposed and a 1 mm bore-hole is drilled through the bone above the prefrontal cortex (co-ordinates from bregma (mm): anterior-posterior +3.2, mediolateral 0.6 and dorsoventral −1.5 at a 0° angle (from dura)) in those animals where determination of dialysate noradrenaline levels is required. Smaller bore holes are made and three screws are inserted within the skull. The intracerebral guide cannula (CMA, Carnegie) is lowered through the hole until the tip is immediately above the nucleus accumbens or prefrontal cortex. The guide together with the screws are cemented onto the bone with dental cement and the surrounding skin sutured. Animals are allowed to recover at least six days prior to microdialysis experimentation.
Microdialysis experimentation. On the day of the experiment microdialysis probes (CMA 12, 0.5 mm outer diameter, Stockholm, Sweden) are inserted through the guide cannula into the nucleus accumbens (2 mm membrane length) or prefrontal cortex (4 mm membrane length). The Inlet of the probe is connected with low volume tubing (F.E.B-tubing, 1.2 μl/10 cm, Carnegie) via a liquid-swivel (dual channel; Instech, UK) on a counterbalanced arm, to a syringe-pump (Harvard, 10 channel). […] The outlet of the probe is connected with low volume tubing via the liquid swivel to a CMA 140 fraction collector. […]
Analysis of dialysate dopamine and serotonin. […] Dopamine and serotonin are electrochemically detected with an EG&G (model 400, Princeton Applied Research) controller equipped with a glassy carbon working electrode (VT-03; Antec, Leiden, the Netherlands). […] The output is recorded on a computer equipped with Hyperchem™ (Hewlett-Packard Inc.) which measures peak height values. Calculations (μg/20 min) are made using peak height values of analysed standard solutions containing known amounts of dopamine and serotonin. […] The compounds are electrochemically detected with an EG&G (model 400, Princeton Applied Research) controller equipped with a glassy carbon working electrode (VT-03; Antec, Leiden, the Netherlands). […]

[2] = tested on: dialysate serotonin in the nucleus accumbens; assay: In vivo microdialysis, dialysate serotonin; details: awake freely moving rat; for ED150: p.o. or i.p. (italic); for [serotonin] ED75 (footnote 1): footnote 1: ED75 instead of ED150
Procedure: as §1, §2, §3
(§4) Microdialysis experimentation. On the day of the experiment microdialysis probes (CMA 12, 0.5 mm outer diameter, Stockholm, Sweden) are inserted through the guide cannula into the nucleus accumbens (2 mm membrane length) or prefrontal cortex (4 mm membrane length). The Inlet of the probe is connected with low volume tubing (F.E.B-tubing, 1.2 μl/10 cm, Carnegie) via a liquid-swivel (dual channel; Instech, UK) on a counterbalanced arm, to a syringe-pump (Harvard, 10 channel). […] The outlet of the probe is connected with low volume tubing via the liquid swivel to a CMA 140 fraction collector. The tubing is supported by a stainless steel wire which leads from the swivel down to a clip, which fits to a collar around the neck of an animal. […] Samples are collected at a flow rate of 2 μl/min at 20 min intervals (40 μl volume) in vials containing 50 μl of a HCOOH/cysteine solution (0.02M/0.2 w/v %) to prevent oxidation of the compounds. Following a baseline period of 5 samples, drugs are administered systemically and at least a further 8 samples collected. All samples were stored post-collection on dry ice and frozen at […] prior to analysis by high-performance liquid chromatography (HPLC) coupled to electrochemical detection described below.
(§5) Analysis of dialysate dopamine and serotonin. […] The final pH was adjusted to 4.9 with 1N NaOH. Dopamine and serotonin are electrochemically detected with an EG&G (model 400, Princeton Applied Research) controller equipped with a glassy carbon working electrode (VT-03; Antec, Leiden, the Netherlands). The potential is set at 600 mV versus an Ag/AgCl reference electrode. The output is recorded on a computer equipped with Hyperchem™ (Hewlett-Packard Inc.) which measures peak height values. Calculations (μg/20 min) are made using peak height values of analysed standard solutions containing known amounts of dopamine and serotonin. Analysis of dialysate dopamine and noradrenaline. […] The basal mobile phase consists of: 50 mM NaAc, and 0.27 mM EDTA. The final concentration of 1-octanesulfonic acid (NOS) and methanol, as well as the final pH (adjusted with HAc), vary with the different brain areas under examination. The compounds are electrochemically detected with an EG&G (model 400, Princeton Applied Research) controller equipped with a glassy carbon working electrode (VT-03; Antec, Leiden, the Netherlands). The potential is set at 450 mV versus a Hyref reference electrode.

[3] = tested on: dialysate dopamine in the nucleus accumbens; assay: In vivo microdialysis, dialysate dopamine; set-up: species or system rat; details: read-out: [dopamine] ED75
Procedure: as §1, §2, §3, §4, §5

serotonin reuptake sites = target: T1, serotonin reuptake sites (Rattus norvegicus, UniProt P31652); assay: In vitro functional inhibition of [3H]-serotonin reuptake in rat brain synaptosomes; type: biochemical; details: for IC50: rat brain synaptosomes, read-out: 5-HT uptake pIC50 (converted)
T1 construct: the cerebral hemispheres were rapidly removed and a P2-synaptosomal fraction was prepared; from tissue; host or cells: rat (Wistar) cerebral hemispheres, P2-synaptosomal fraction
T1 sequence (P31652 whole entry): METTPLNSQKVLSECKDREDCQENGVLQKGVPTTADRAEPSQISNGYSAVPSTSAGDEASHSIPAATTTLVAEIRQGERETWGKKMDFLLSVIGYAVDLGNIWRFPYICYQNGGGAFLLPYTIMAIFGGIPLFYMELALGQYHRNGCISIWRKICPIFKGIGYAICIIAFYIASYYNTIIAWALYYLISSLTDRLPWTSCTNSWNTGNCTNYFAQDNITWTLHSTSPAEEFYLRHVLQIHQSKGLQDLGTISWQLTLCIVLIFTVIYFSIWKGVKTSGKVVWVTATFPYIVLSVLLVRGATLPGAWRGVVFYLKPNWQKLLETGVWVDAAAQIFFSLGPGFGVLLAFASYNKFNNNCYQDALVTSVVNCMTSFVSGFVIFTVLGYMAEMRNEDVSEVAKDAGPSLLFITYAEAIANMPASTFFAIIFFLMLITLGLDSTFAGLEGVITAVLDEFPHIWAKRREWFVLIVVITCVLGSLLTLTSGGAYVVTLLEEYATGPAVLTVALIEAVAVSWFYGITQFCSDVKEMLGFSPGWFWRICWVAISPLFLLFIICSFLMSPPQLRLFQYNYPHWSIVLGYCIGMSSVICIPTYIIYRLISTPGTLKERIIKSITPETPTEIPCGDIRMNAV
Procedure: (§6) The in vitro functional activity at dopamine-D2 receptors, Including the intrinsic activity (ε) of the compounds which can be used according to the invention as well as relevant reference compounds was measured by their ability to inhibit forskolin-induced [^3H]cAMP accumulation. Serotonin and noradrenaline reuptake inhibitory activity was measured In rat brain synaptosomes.
In Vitro Functional Inhibition of [^3H]-serotonin Reuptake
Synaptosomes were pre-incubated in absence or presence of the test compound for 15 min at 37° C., in a medium containing the monoamine oxidase inhibitor pargyline (7 μM). Subsequently, the synaptosomes were exposed to [^3H]-serotonin ([…] final concentration) for 10 min.
(§7) [^3H]-serotonine uptake was stopped by filtration with a harvester and the non-incorporated radioactivity was removed by an extensive washing programme. The filter plates with synaptosomes were dehydrated and the amount of [^3H]-serotonin present was determined by Betaplate liquid scintillation counting.

[4] = target: noradrenaline reuptake sites (Rattus norvegicus, UniProt Q9WTR4); assay: In vitro functional inhibition of [3H]-noradrenalin reuptake in rat hypothalamus synaptosomes; type: biochemical
Procedure: as §6
Synaptosomes were pre-incubated in absence or presence of the test compound for 10 min at 37° C., in a medium containing the monoamine oxidase inhibitor pargyline (7 μM). Subsequently, the synaptosomes were exposed to [^3H]-noradrenaline ([…] final concentration) for 15 min.
as §7, with “[^3H]-noradrenaline” for “[^3H]-serotonine”, “[^3H]-noradrenaline” for “[^3H]-serotonin”

[5] = target: human dopamine D2,L receptors (Homo sapiens, UniProt P14416); assay: Inhibition of forskolin-induced [3H]-cAMP accumulation in CHO-K1 cells
human dopamine D2,L receptors, sequence (P14416 whole entry): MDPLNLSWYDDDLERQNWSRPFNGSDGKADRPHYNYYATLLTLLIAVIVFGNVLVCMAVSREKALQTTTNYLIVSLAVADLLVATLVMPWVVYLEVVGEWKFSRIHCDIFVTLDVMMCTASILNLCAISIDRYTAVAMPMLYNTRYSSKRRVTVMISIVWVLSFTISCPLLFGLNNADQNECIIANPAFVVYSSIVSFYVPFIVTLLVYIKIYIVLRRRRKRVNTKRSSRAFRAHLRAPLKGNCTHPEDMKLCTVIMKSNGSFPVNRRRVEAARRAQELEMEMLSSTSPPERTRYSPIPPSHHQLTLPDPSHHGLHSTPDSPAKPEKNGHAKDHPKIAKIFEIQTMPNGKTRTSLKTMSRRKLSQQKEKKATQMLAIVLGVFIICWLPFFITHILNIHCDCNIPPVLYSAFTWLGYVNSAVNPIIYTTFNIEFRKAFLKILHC

[6] = nucleus accumbens, awake freely moving rat, p.o. or i.p. (italic)
[7] = fraction of full agonism (ε = 1, quinpirole)

Structure (SMILES): CCOc1ccccc1OC(c1ccccc1)C1CNCCO1 (stereo not drawn) [reboxetine]
[noradren] ED150 [1]: <3.0 mg/kg
ED150 [2]: > 3 mg/kg
ED75 [3, 6]: > 3 mg/kg

Structure (SMILES): C=CCN1CCc2nc(N)sc2CC1 [talipexole]
pIC50 (serotonin reuptake sites): < 5.00
ED150 [2]: > 10 mg/kg
NA uptake pIC50 [4]: <5.0
ED75 [3, 6]: < 0.1 mg/kg
pEC50 [5]: 7.40
agonist properties at human dopamine D2 receptors (FIG. 2 upper panel) [5]: full agonists
cAMP accum. ε (intrinsic activity) [5]: 1.00

Structure (SMILES): O=c1[nH]c2cccc(N3CCN(Cc4cccc(-c5ccccc5)c4)CC3)c2o1 [bifeprunox]
IC50 (serotonin reuptake sites): 15800 nM
[serotonin] ED75 (footnote 1) [2]: >10^1 mg/kg
NA uptake pIC50 ([4]; rat hypothalamus synaptosomes): 4.6
ED75 ([3]; Rattus norvegicus): > 10 mg/kg
pEC50 [5]: 7.80
cAMP accum. ε (intrinsic activity) [5]: 0.20

Structure (SMILES): CCCN1CCC[C@@H]2Cc3n[nH]cc3C[C@H]21 [quinpirole]
ED150 [2]: > 3 mg/kg
ED75 [3, 6]: 0.04 mg/kg

Structure (SMILES): CCN(CC)C(=O)N[C@H]1C[C@@H]2c3cccc4[nH]cc(c34)C[C@H]2N(C)C1 [terguride]
IC50 (serotonin reuptake sites): > 10000 nM
ED150 [2]: > 10 mg/kg
NA uptake pIC50 ([4]; rat hypothalamus synaptosomes): <5.0
ED75 [3, 6]: > 10 mg/kg
pEC50 [5]: 9.40
agonist properties at human dopamine D2 receptors (FIG. 2 upper panel) ([5]; agonist mode): partial agonists
antagonist effects against the reference agonist quinpirole (FIG. 2 lower panel) ([5]; antagonist mode versus quinpirole): partial antagonists
cAMP accum. ε (intrinsic activity) [5, 7]: 0.38

Structure (SMILES): CN1CCN(c2cccc3[nH]c(=O)oc23)CC1 [SLV 308]
[noradren] ED150 [1]: 0.53 mg/kg
IC50 (serotonin reuptake sites): > 10000 nM
[serotonin] ED75 (footnote 1) [2]: 0.45^1 mg/kg
NA uptake pIC50 ([4]; rat hypothalamus synaptosomes): <5.0
ED75 [3, 6]: 0.04 mg/kg
pEC50 [5]: 7.50
pEC50 ([5]; pEC50 (inhibition of cAMP formation)): 8.00

Structure (SMILES): Fc1ccc([C@@H]2CCNC[C@H]2COc2ccc3c(c2)OCO3)cc1 [paroxetine]
ED150 [2]: < 10 mg/kg
NA uptake pIC50 [4]: <5.0
ED75 [3, 6]: > 10 mg/kg
pEC50 [5]: < 6.00
cAMP accum. ε (intrinsic activity) [5]: 0.36

Structure (SMILES): CCCN1CCC[C@@H](c2cccc(O)c2)C1 [preclamol]
IC50 (serotonin reuptake sites): > 10000 nM
ED150 [2]: > 30 mg/kg
NA uptake pIC50 ([4]; rat hypothalamus synaptosomes): 5.3
ED75 [3, 6]: 14.5 mg/kg
cAMP accum. ε (intrinsic activity) [5, 7]: 0.36

Structure (SMILES): COCCCC/C(=N\OCCN)c1ccc(C(F)(F)F)cc1 [fluvoxamine]
NA uptake pIC50 ([4]; rat hypothalamus synaptosomes): 5.3
pEC50 [5]: < 6.00
cAMP accum. ε (intrinsic activity) [5, 7]: 0.10

Structure (SMILES): CCN(CC)C(=O)C1(c2ccccc2)CC1CN (stereo not drawn) [milnacipran]
[noradren] ED150 [1]: 2.41 mg/kg
pIC50 (serotonin reuptake sites): 6.60
ED150 [2]: 5.5 mg/kg
NA uptake pIC50 [4]: 5.5
ED75 [3, 6]: > 30 mg/kg
pEC50 [5]: < 6.00
cAMP accum. ε (intrinsic activity) [5]: 0.21

Structure (SMILES): CNCCCN1c2ccccc2CCc2ccccc21 [DMI]
[noradren] ED150 [1]: 1.64 mg/kg
ED150 [2]: > 3 mg/kg
ED75 [3, 6]: > 3 mg/kg
pEC50 [5]: < 6.00
cAMP accum. ε (intrinsic activity) [5]: 0.12

Continued, in another order:

IC50 (serotonin reuptake sites): > 10000 nM
NA uptake pIC50 ([4]; rat hypothalamus synaptosomes): 5.2
cAMP accum. ε (intrinsic activity) [5, 7]: 0.27
Structure (SMILES): O=c1[nH]c2cccc(N3CCN(CCCc4cn5c6c(cc(F)cc46)CCC5)CC3)c2o1 [example 1b]

IC50 (serotonin reuptake sites): 251 nM
NA uptake pIC50 ([4]; rat hypothalamus synaptosomes): <5.0
pEC50 [5]: > 9.00
cAMP accum. ε (intrinsic activity) [5, 7]: 0.60
Structure (SMILES): O=c1[nH]c2cccc(N3CCN(CCCc4c[nH]c5ccccc45)CC3)c2o1 [example 1e]

IC50 (serotonin reuptake sites): 25.1 nM
NA uptake pIC50 ([4]; rat hypothalamus synaptosomes): <5.0
pEC50 [5]: 6.80
cAMP accum. ε (intrinsic activity) [5, 7]: 0.53
Structure (SMILES): O=c1[nH]c2cccc(N3CCN(CCCc4c[nH]c5ccc(F)cc45)CC3)c2o1 [example 1c]
ED150 [2]: 14.8 mg/kg
ED75 [3, 6]: 3.92 mg/kg

IC50 (serotonin reuptake sites): 126 nM
NA uptake pIC50 ([4]; rat hypothalamus synaptosomes): <5.0
pEC50 [5]: < 6.00
cAMP accum. ε (intrinsic activity) [5, 7]: 0.27
Structure (SMILES): Cn1cc(CCCN2CCN(c3cccc4[nH]c(=O)oc34)CC2)c2cc(F)ccc21 [example 1a]
ED150 [2]: 2.52 mg/kg
ED75 [3, 6]: 8.14 mg/kg

IC50 (serotonin reuptake sites): 398 nM
NA uptake pIC50 ([4]; rat hypothalamus synaptosomes): <5.0
pEC50 [5]: > 9.00
cAMP accum. ε (intrinsic activity) [5, 7]: 0.56
Structure (SMILES): Cc1cccc2c(CCCN3CCN(c4cccc5[nH]c(=O)oc45)CC3)c[nH]c12 [example 1d]
